Data taken from patent US20260285858A1, “GLP-1 RECEPTOR TARGETING COMPOUNDS AND USES THEREOF” (FORTVITA BIOLOGICS INC., priority 2023, published 2026).

Tests used:
[1] = Pharmacokinetic testing in crab-eating macaques (cynomolgus monkey), IV and PO; assay type: in vivo; conditions: for pharmacokinetics compared to Orforglipron: comparison in words; for AUC(0-t) at 24 h / C0 / clearance / half-life / Cmax / bioavailability: cynomolgus monkey, plasma; for bioavailability: 2 mg/kg vs IV 0.5 mg/kg
Experimental: Crab-eating macaques were administered the compound of the present invention via intravenous injection and oral gavage, respectively. Plasma samples were collected at various time points. The drug concentration of the test compound in the plasma tissue of the crab-eating macaques was detected using an LC-MS/MS analytical method, and a pharmacokinetic analysis was conducted.
Solvent for intravenous injection dosing formulation: […] (DMSO)+5% polyethylene glycol (PEG)-15 hydroxystearate+90% o physiological saline.
Preparation steps for the intravenous injection dosing solution: Accurately weigh the test compound and add it to the aforementioned solvent for intravenous injection dosing to prepare a solution with a final concentration of 0.25 mg/mL.
Solvent for oral dosing formulation: 5% dimethyl sulfoxide (DMSO)+5% polyethylene glycol (PEG)-15 hydroxystearate+90% physiological saline.
Preparation steps for the oral dosing solution: Accurately weigh the test compound and add it to the aforementioned solvent for oral dosing to prepare a solution or suspension with a final concentration of 0.4 mg/mL.
Intravenous injection(IV): Administered via […].
Oral (PO): Select an appropriately sized gavage needle and syringe, insert the gavage needle into the esophagus from the base of the tongue, until it is close to the cardia of the stomach, then inject the drug formulation and remove the gavage needle. When using disposable plastic gavage needles, use one per group.
Blood is collected via a cephalic vein or other suitable vein, with approximately 1 mL per sample, anticoagulated with K2-EDTA, and placed on ice after collection. After collection, blood samples are kept on ice and centrifuged to separate the plasma within 1 hour (centrifugation conditions: 2200 g, 10 minutes, 2-8° C.). Plasma samples are stored at −80° C. before analysis and the remaining plasma samples after analysis are continued to be stored at −80° C. • 4. Sample Detection Plasma concentration detection: The developed LC-MS/MS method is used to detect the compound in the plasma in this experiment. • 5. Data Analysis A non-compartmental model is used to analyze the blood concentration-time data using Phoenix® WinNonlin® (Version 7.0, Pharsight, Mountain View, CA).

human GLP-1R = molecular target: T1, human GLP-1R (Homo sapiens, UniProt P43220); experiment: cAMP accumulation assay (Hithunter cAMP Assay) in CHO-K1 cells stably expressing human GLP-1R; assay type: cell-based; conditions: CHO-K1 cells expressing human GLP-1R; in the presence of BSA (1%); 30-minute incubation; relative EC50
T1 construct: expressed in transfected cells; host or cells: CHO-K1
Experimental: CHO-K1 cell line stably expressing human GLP-1R was used to detect the cAMP levels using Hithunter cAMP Assay for small molecules platform according manufacturer's instructions (DiscoverX, Cat #90-0075SM2). […] After a 30-minute incubation at 37° C., the cAMP antibody reagent, working solution (mixing 19-parts of lysis buffer, 5-parts of substrate reagent 1, 1-part of substrate reagent 2, and 25-parts of solution D (enzyme donor-labeled cAMP)), and solution A (enzyme […]) were added and incubated at room temperature in the dark. The resulting competitive assays were measured using Spectramax i3x Multi-Mode Detection system (Molecular Devices, USA). A relative EC50 was derived by nonlinear regression analysis by fitting to a 4-parameter logistic model in GraphPad Prism 9 software.

T1 sequence (P43220 24-463): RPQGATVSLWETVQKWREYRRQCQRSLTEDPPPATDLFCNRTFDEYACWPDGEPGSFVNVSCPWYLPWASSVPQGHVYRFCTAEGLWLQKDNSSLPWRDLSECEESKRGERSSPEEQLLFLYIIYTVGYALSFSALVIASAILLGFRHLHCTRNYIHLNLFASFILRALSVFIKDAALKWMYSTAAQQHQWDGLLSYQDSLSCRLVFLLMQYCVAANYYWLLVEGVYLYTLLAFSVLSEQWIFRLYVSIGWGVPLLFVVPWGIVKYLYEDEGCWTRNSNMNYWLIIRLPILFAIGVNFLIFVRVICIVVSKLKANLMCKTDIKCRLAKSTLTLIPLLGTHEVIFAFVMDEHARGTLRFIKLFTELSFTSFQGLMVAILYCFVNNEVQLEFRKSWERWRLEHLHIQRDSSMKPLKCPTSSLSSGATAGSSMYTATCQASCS

| AUC(0-t) at 24 h ([1]; IV, 0.5 mg/kg) [ng·h/mL] | C0 ([1]; IV, 0.5 mg/kg) [ng/mL] | clearance ([1]; IV, 0.5 mg/kg) [mL/min/kg] | half-life ([1]; IV, 0.5 mg/kg) [h] | AUC(0-t) at 24 h ([1]; PO, 2 mg/kg) [ng·h/mL] | Cmax ([1]; PO, 2 mg/kg) [ng/mL] | half-life ([1]; PO, 2 mg/kg) [h] | bioavailability ([1]; PO) [%] | EC50 (human GLP-1R) [nM] | SMILES | pharmacokinetics compared to Orforglipron [1] |
| --- | --- | --- | --- | --- | --- | --- | --- | --- | --- | --- |
| 7560 | 3810 | 0.9 | 10.3 | 3590 | 236 | 13.6 | 11.9 | – | Cc1cc(-n2nc3c(c2-n2ccn(-c4ccc5c(cnn5C)c4F)c2=O)[C@H](C)N(C(=O)c2cc4cc([C@H]5CCOC(C)(C)C5)ccc4n2[C@@]2(c4noc(=O)[nH]4)[C@@H]4CN(c5ccccn5)C[C@@H]42)CC3)cc(C)c1F [Compound C-22, 3-[(1R,5S,6S)-6-{5-[(4S)-2,2-dimethyloxan-4-yl]-2-[(4S)-3-[3-(4-fluoro-1-methyl-1H-indazol-5-yl)-2-oxo-2,3-dihydro-1H-imidazol-1-yl]-2-(4-fluoro-3,5-dimethylphenyl)-4-methyl-2H,4H,5H,6H,7H-pyrazolo[4,3-c]pyridine-5-carbonyl]-1H-indol-1-yl}-3-(pyridin-2-yl)-3-azabicyclo[3.1.0]hexan-6-yl]-4,5-dihydro-1,2,4-oxadiazol-5-one] | longer half-life, higher exposure, lower clearance rate, and greater bioavailability |
| 1780 | 1170 | 4.6 | 3.4 | 453 | 37.5 | 6.2 | 6.3 | – | Cc1cc(-n2nc3c(c2-n2ccn(-c4ccc5c(cnn5C)c4F)c2=O)[C@H](C)N(C(=O)c2cc4cc([C@H]5CCOC(C)(C)C5)ccc4n2[C@@]2(c4noc(=O)[nH]4)C[C@@H]2C)CC3)cc(C)c1F [Orforglipron, reference compound] | – |
| 6290 | 6730 | 1.3 | 6.3 | 6160 | 514 | 5.9 | 24.5 | – | Cc1cc(-n2nc3c(c2-n2ccn(-c4ccc5c(cnn5C)c4F)c2=O)[C@H](C)N(C(=O)c2cc4cc([C@H]5CCOC(C)(C)C5)ccc4n2[C@@]2(c4noc(=O)[nH]4)[C@@H]4CN(c5ncccn5)C[C@@H]42)CC3)cc(C)c1F [Compound C-12, 3-[(1R,5S,6S)-6-{5-[(4S)-2,2-dimethyloxan-4-yl]-2-[(4S)-3-[3-(4-fluoro-1-methyl-1H-indazol-5-yl)-2-oxo-2,3-dihydro-1H-imidazol-1-yl]-2-(4-fluoro-3,5-dimethylphenyl)-4-methyl-2H,4H,5H,6H,7H-pyrazolo[4,3-c]pyridine-5-carbonyl]-1H-indol-1-yl}-3-(pyrimidin-2-yl)-3-azabicyclo[3.1.0]hexan-6-yl]-4,5-dihydro-1,2,4-oxadiazol-5-one] | longer half-life, higher exposure, lower clearance rate, and greater bioavailability |
| – | – | – | – | – | – | – | – | 0.6 | Cc1cc(-n2nc3c(c2-n2ccn(-c4ccc5c(cnn5C)c4F)c2=O)[C@H](C)N(C(=O)c2cc4cc(C5CCOCC5)ccc4n2[C@@]2(c4nnn[nH]4)[C@@H]4CN([C@H]5CC[C@@H](O)CC5)C[C@@H]42)CC3)cc(C)c1F (single isomer, unassigned) [Compound C-18] | – |
| – | – | – | – | – | – | – | – | 0.2 | Cc1cc(-n2nc3c(c2-n2ccn(-c4ccc5c(cnn5C)c4F)c2=O)[C@H](C)N(C(=O)c2cc4cc(C5CCOCC5)ccc4n2[C@@]2(c4nnn[nH]4)[C@@H]4CN([C@H]5CC[C@H](O)CC5)C[C@@H]42)CC3)cc(C)c1F (single isomer, unassigned) [Compound C-17] | – |
